Columns and labels:
[1] = target: Glutamate [NMDA] receptor; assay: Tested for the inhibitory activity by the inhibition of excitatory L-[3H]Glutamate binding to NMDA recognition sites; type: protein-complex assay
[2] = target: Glutamate [NMDA] receptor; assay: Tested for the inhibitory activity by the inhibition of excitatory [3H]CGS-19,755 binding to NMDA recognition sites; type: protein-complex assay
[3] = Tested for the ability to inhibit the pentylenetetrazole induced seizures against NMDA antagonist by intraperitoneal administration; type: functional; conditions: ip
[4] = Tested for the ability to inhibit the NMDA induced seizures against NMDA antagonist by intraperitoneal administration; type: functional; conditions: ip
[5] = Tested for the ability to inhibit the maximal electroshock induced seizures against NMDA antagonist by intraperitoneal administration; type: functional; conditions: ip

Compound | IC50 [1] | IC50 [2] | ED50 [3] | ED50 [4] | ED50 [5]
N[C@@H](C[C@H]1CCCC[C@H]1CCP(=O)(O)O)C(=O)O | 2590 nM | 264 nM |  |  | 
N[C@@H](C[C@@H]1CCCC[C@@H]1CCP(=O)(O)O)C(=O)O | 6460 nM | 239 nM |  |  | 
O=C(O)[C@H]1CN(CCCP(=O)(O)O)CCN1 | 321 nM | 86 nM |  |  | 
NC(CC1CCCCC1CCP(=O)(O)O)C(=O)O (stereo unspecified) | 1600 nM | 976 nM | 6.02 mg/kg | 12.4 mg/kg | > 15 mg/kg
N[C@H](C[C@H]1CCCC[C@H]1CCP(=O)(O)O)C(=O)O | 607 nM | 148 nM | 4.51 mg/kg | 2.68 mg/kg | 13.4 mg/kg
N[C@H](C[C@@H]1CCCC[C@@H]1CCP(=O)(O)O)C(=O)O | 3130 nM | 555 nM |  |  | 
O=C(O)[C@@H]1C[C@H](CP(=O)(O)O)CCN1 (single isomer, unassigned) [SELFOTEL] |  |  | 29 mg/kg | 2.64 mg/kg | 12.9 mg/kg
CC(=CC(N)C(=O)O)CP(=O)(O)O (stereo unspecified) [CGP-37849] | 25.7 nM | 18 nM | > 10 mg/kg | 3.41 mg/kg | 3.64 mg/kg
